Experimental data reported in patent US20230263803A1, “METHODS OF PREVENTING OR TREATING COVID-19 AND RELATED VIRAL DISEASES OR DISORDERS” (KINARUS AG, priority 2020, published 2023).

Columns and labels:
SARS-CoV-2PR1 = assay: microbe, parasite or virus in culture; format: cell-based; conditions: Vero B4 cells, 72 hrs, qRT-PCR
Vero B4 cells = conditions: 72 hrs

SMILES | inhibition at 0.1 µM (SARS-CoV-2PR1; Severe acute respiratory syndrome coronavirus 2, lowest concentration tested (100 nM), read-out: inhibition of shedding of new SARS-CoV-2 viruses into culture supernatants) | cellular toxicity as determined by WST assay (Vero B4 cells) | inhibition of viral shedding (SARS-CoV-2PR1; at the highest concentrations)
Cn1c(=O)c(Oc2ccc(F)cc2F)cc2cnc(NC(CCO)CCO)nc21 [Pamapimod, 6-(2,4-Difluorophenoxy)-2-[3-hydroxy-1-(2-hydroxyethyl)-propylamino]-8-methyl-8H-pyrido[2,3-d]pyrimidin-7-one] | 80% | no cellular toxicity | –
CCc1ccc(CCOc2ccc(CC3SC(=O)NC3=O)cc2)nc1 (stereo not drawn) [Pioglitazone] | – | – | > 90%
